SMILES strings stand for the structures.

One experiment deals with HUT78 cells. Kind of experiment: HUT cell inhibition assay (WST-1 cell viability). The experiment is classed as cell-based. The note with it: Homo sapiens; HUT78 cells; IC50 allocated to ranges; read-out: HUT activity. The method, then:
(§1) Cancer cell lines (U937 and HUT) growing in log phase were harvested and seeded at 1000-2000 cells/well (100 μl final volume) into 96-well tissue culture plates. Following 24 h of growth cells were treated with Compound. Plates were then re-incubated for a further 72-96 h before a WST-1 cell viability assay was conducted according to the suppliers (Roche Applied Science) instructions.
(§2) Data were expressed as a percentage inhibition of the control, measured in the absence of inhibitor, as follows: % inhibition=100−[(S^i/S^o)×100] where S^i is the signal in the presence of inhibitor and S^o is the signal in the presence of DMSO.
(§3) Dose response curves were generated from 8 concentrations (top final concentration 10 μM, with 3-fold dilutions), using 6 replicates.
(§4) IC50 values were determined by non-linear regression analysis, after fitting the results to the equation for sigmoidal dose response with variable slope (% activity against log concentration of Compound), using Graphpad Prism software.

Experiment [1] concerns the target histone deacetylase activity (HeLa nuclear extract). Kind of experiment: HDAC fluorescent activity assay (Fluor de Lys, Biomol). In kind it is biochemical. The note with it: IC50 allocated to ranges, read-out: HDAC activity. The method, then: The ability of compounds to inhibit histone deacetylase activities was measured using the commercially available HDAC fluorescent activity assay from Biomol. In brief, the Fluor de Lys™ substrate, a lysine with an epsilon-amino acetylation, is incubated with the source of histone deacetylase activity (HeLa nuclear extract) in the presence or absence of inhibitor. Deacetylation of the substrate sensitises the substrate to Fluor de Lys™ developer, which generates a fluorophore. Thus, incubation of the substrate with a source of HDAC activity results in an increase in signal that is diminished in the presence of an HDAC inhibitor.
Data are expressed as a percentage of the control, measured in the absence of inhibitor, with background signal being subtracted from all samples, as follows: % activity=[(S^i−B)/(S^o−B)]×100 where S^i is the signal in the presence of substrate, enzyme and inhibitor, S^o is the signal in the presence of substrate, enzyme and the vehicle in which the inhibitor is dissolved, and B is the background signal measured in the absence of enzyme.
IC50 values were determined by non-linear regression analysis, after fitting the results of eight data points to the equation for sigmoidal dose response with variable slope (% activity against log concentration of Compound), using Graphpad Prism software.
Histone deacetylase activity from crude nuclear extract derived from HeLa cells was used for screening. The preparation, purchased from 4C (Seneffe, Belgium), was prepared from HeLa cells harvested whilst in exponential growth phase. The nuclear extract was prepared according to the methodology described by J. D. Dignam, Nucl. Acid. Res., 1983, 11, 1475-1489, snap frozen in liquid nitrogen and stored at −80° C. The final buffer composition was 20 mM Hepes, 100 mM KCl, 0.2 mM EDTA, 0.5 mM DTT, 0.2 mM PMSF and 20% (v/v) glycerol.

In another experiment the test system is U937 cells. Kind of experiment: U937 cell inhibition assay (WST-1 cell viability). Conditions: Homo sapiens, U-937; U937 cells; IC50 allocated to ranges; read-out: U937 activity. The experiment is classed as cell-based. The method, then: as §1, §2, §3, §4
A general note: Formazan colour is commonly taken as a measure of viable cells.

As for `CC(C)[C@H](NCc1ccc(CCC(=O)NO)cc1)C(=O)OC1CCCC1` [Example 42, Cyclopentyl N-{4-[3-(hydroxyamino)-3-oxopropyl]benzyl}-L-valinate], the values for the IC50 (in the experiment with HUT78 cells; in experiment [1]; with U937 cells) were 331 to 3300 nM, > 1000 nM and < 330 nM, respectively.

`CC(N[C@H](C(=O)O)C1CCCCC1)c1ccc(/C=C/C(=O)NO)cc1` (stereo partly drawn) [Example 108]: in experiment [1], the IC50 was < 100 nM. The same measure, in the same setting: as for `CC(C)[C@H](NCc1ccc(CCC(=O)NO)cc1)C(=O)O` [Example 99], the figure is > 1000 nM. On the same count and under the same terms, as for `CC(C)C[C@H](NC(C)c1ccc(/C=C/C(=O)NO)cc1)C(=O)O` (stereo partly drawn) [Example 112, N-(1-{4-[(1E)-3-(Hydroxyamino)-3-oxoprop-1-en-1-yl]phenyl}ethyl)-L-leucine], the figure is < 100 nM; as for `O=C(CCc1ccc(CN[C@H](C(=O)O)C2CCCCC2)cn1)NO` [Example 103], < 100 nM.

Take `O=C(/C=C/c1ccc(CN[C@H](C(=O)OCc2ccccc2)C2CCCCC2)cc1)NO` [Example 24, Benzyl (2S)-cyclohexyl({4-[(1E)-3-(hydroxyamino)-3-oxoprop-1-en-1-yl]benzyl}amino)acetate]: the figures for the IC50 (in the experiment on HUT78 cells; in experiment [1]; with U937 cells) were < 330 nM, < 100 nM and < 330 nM, respectively. As to `O=C(/C=C/c1ccc(CN[C@@H](C(=O)O)c2ccccc2)cc1)NO` [Example 95], in experiment [1], the IC50 lay within 101 to 1000 nM. With `CC(C)(C)[C@H](NCc1ccc(CCC(=O)NO)cc1)C(=O)OC1CCCC1` [Example 43, Cyclopentyl N-{4-[3-(hydroxyamino)-3-oxopropyl]benzyl}-3-methyl-L-valinate], the values for the IC50 (with HUT78 cells; in experiment [1]; in the experiment with U937 cells) were 331 to 3300 nM, > 1000 nM and 331 to 3300 nM, respectively. Regarding `CN(C)CCOC(=O)[C@@H](NCc1ccc(/C=C/C(=O)NO)cc1)C1CCCCC1` [Example 31, 2-(Dimethylamino)ethyl (2S)-cyclohexyl({4-[(1E)-3-(hydroxyamino)-3-oxoprop-1-en-1-yl]benzyl}amino)acetate], the IC50 was 331 to 3300 nM with HUT78 cells, < 100 nM in experiment [1] and < 330 nM in the experiment with U937 cells. On the same counts, the results for `CC(C)[C@@H]1CC[C@@H](C)C[C@H]1OC(=O)[C@@H](NCc1ccc(CCC(=O)NO)cc1)C1CCCCC1` [Example 46, (1R,2S,5R)-2-Isopropyl-5-methylcyclohexyl (2S)-cyclohexyl({4-[3-(hydroxyamino)-3-oxopropyl]benzyl}amino)acetate] are > 3300 nM, > 1000 nM and > 3300 nM. Turning to `CC(C)(C)OC(=O)[C@@H](NCc1ccc(CCC(=O)NO)nc1)C1CCCCC1` [Example 63, tert-Butyl (2S)-cyclohexyl[({6-[3-(hydroxyamino)-3-oxopropyl]pyridin-3-yl}methyl)amino]acetate], the IC50 in experiment [1] was < 100 nM. For `O=C(CCc1ccc(CN[C@H](C(=O)OC2CCCC2)C2CCCCC2)cc1)NO` [Example 33, Cyclopentyl (2S)-cyclohexyl({4-[3-(hydroxyamino)-3-oxopropyl]benzyl}amino)acetate], the figures for the IC50 (with HUT78 cells; in experiment [1]; with U937 cells) were 331 to 3300 nM, 101 to 1000 nM and < 330 nM, respectively. On the same counts, the results for `CC(C)C[C@H](NCc1ccc(/C=C/C(=O)NO)cn1)C(=O)OC(C)(C)C` [Example 69, tert-Butyl N-({5-[(1E)-3-(hydroxyamino)-3-oxoprop-1-en-1-yl]pyridin-2-yl}methyl)-L-leucinate] are 331 to 3300 nM, 101 to 1000 nM and 331 to 3300 nM. `O=C(CCc1ccc(CN[C@H](C(=O)O)c2ccccc2)cc1)NO` [Example 98]: the IC50 in experiment [1] is > 1000 nM.

Take `CC(C)(C)OC(=O)[C@@H](NCc1ccc(/C=C/C(=O)NO)nc1)c1ccccc1` [Example 61, tert-Butyl (2S)-[({6-[(1E)-3-(hydroxyamino)-3-oxoprop-1-en-1-yl]pyridin-3-yl}methyl)amino](phenyl)acetate]: the IC50 is < 330 nM in the experiment with HUT78 cells, < 100 nM in experiment [1] and < 330 nM with U937 cells. For `CC(C)C[C@H](NCc1ccc(CCC(=O)NO)cc1)C(=O)O` [Example 97], in experiment [1], the IC50 was < 100 nM. The same measure, in the same setting: as for `CC(C)C[C@@H](NCc1ccc(/C=C/C(=O)NO)cc1)C(=O)O` [Example 92], the figure is 101 to 1000 nM. Consider `CC(C)C[C@H](NCc1ccc(CCC(=O)NO)cc1)C(=O)O[C@@H]1C[C@H](C)CC[C@H]1C(C)C` [Example 45, (1R,2S,5R)-2-Isopropyl-5-methylcyclohexyl N-{4-[3-(hydroxyamino)-3-oxopropyl]benzyl}-L-leucinate], for which the IC50 is 331 to 3300 nM with HUT78 cells, > 1000 nM in experiment [1] and < 330 nM in the experiment with U937 cells. For the compound `O=C(CCc1ccc(CN[C@H](C(=O)OC2CCCC2)C2CCCCC2)nc1)NO` [Example 70, Cyclopentyl (2S)-cyclohexyl[({5-[3-(hydroxyamino)-3-oxopropyl]pyridin-2-yl}methyl)amino]acetate], the IC50 with HUT78 cells is 331 to 3300 nM; in experiment [1], 101 to 1000 nM; with U937 cells it was < 330 nM. Take `CC(C)(C)OC(=O)[C@@H](NCc1ccc(/C=C/C(=O)NO)cc1)C1CCCCC1` [Example 32, tert-Butyl (2S)-cyclohexyl({4-[(1E)-3-(hydroxyamino)-3-oxoprop-1-en-1-yl]benzyl}amino)acetate]: the results for the IC50 (with HUT78 cells; in experiment [1]; with U937 cells) were 331 to 3300 nM, < 100 nM and 331 to 3300 nM, respectively. In the case of `CC[C@H](C)[C@H](NCc1ccc(CCC(=O)NO)cc1)C(=O)OC(C)(C)C` [Example 44, tert-Butyl N-{4-[3-(hydroxyamino)-3-oxopropyl]benzyl}isoleucinate], the values for the IC50 (in the experiment on HUT78 cells; in experiment [1]; with U937 cells) were 331 to 3300 nM, 101 to 1000 nM and 331 to 3300 nM, respectively. As to `O=C(CCc1ccc(CN[C@H](C(=O)O)C2CCCCC2)nc1)NO` [Example 104], the IC50 in experiment [1] lay within 101 to 1000 nM. In the case of `CC(C)(C)OC(=O)[C@@H](NCc1cccc(CCC(=O)NO)c1)c1ccccc1` [Example 49, tert-Butyl (2S)-({3-[3-(hydroxyamino)-3-oxopropyl]benzyl}amino)(phenyl)acetate], the IC50 in the experiment on HUT78 cells and with U937 cells was > 3300 nM each time. Regarding `O=C(/C=C/c1ccc(CN[C@@H](C(=O)O)C2CCCCC2)cc1)NO` [Example 93], the IC50 in experiment [1] was in the range of 101 to 1000 nM. Same read-out and setting: as for `O=C(/C=C/c1ccc(CN[C@H](C(=O)O)C2CCCCC2)cn1)NO` [Example 101], the figure is < 100 nM; as for `CC(C)C[C@H](NCc1ccc(/C=C/C(=O)NO)cc1)C(=O)O` [Example 89], < 100 nM.

Take `O=C(/C=C/c1cccc(CNCC2CCC(CN[C@H](C(=O)O)C3CCCCC3)CC2)c1)NO` (stereo partly drawn) [Example 105]: the IC50 in experiment [1] is > 1000 nM. Turning to `O=C(/C=C/c1ccc(CN[C@H](C(=O)O)c2ccccc2)cc1)NO` [Example 91], the IC50 in experiment [1] lay in the range of 101 to 1000 nM. Take `CC(C)(C)OC[C@H](NCc1ccc(/C=C/C(=O)NO)cc1)C(=O)O` [Example 90]: the IC50 in experiment [1] was 101 to 1000 nM. On the same count and under the same terms, the value for `CC[C@H](C)[C@H](NCc1ccc(CCC(=O)NO)cc1)C(=O)O` [Example 109, N-{4-[3-(Hydroxyamino)-3-oxopropyl]benzyl}-L-isoleucine] was > 1000 nM; that for `O=C(CCc1ccc(CN[C@H](C(=O)O)C2CCCCC2)cc1)NO` [Example 96] was 101 to 1000 nM; that for `O=C(/C=C/c1ccc(CN2CCC(CN[C@H](C(=O)O)c3ccccc3)CC2)cc1)NO` [Example 107] was > 1000 nM.

For the compound `CC(C)(C)OC[C@@H](NCc1ccc(/C=C/C(=O)NO)cc1)C(=O)O` [Example 94], the IC50 in experiment [1] fell in the range of 101 to 1000 nM. Still for that read-out and setting: the value for `CC(C)C[C@H](NCc1ccc(CCC(=O)NO)nc1)C(=O)O` [Example 110, N-({6-[3-(hydroxyamino)-3-oxopropyl]pyridin-3-yl}methyl)-L-leucine] was 101 to 1000 nM; that for `CC(C)(C)[C@H](NCc1ccc(CCC(=O)NO)cc1)C(=O)O` [Example 100] was > 1000 nM; that for `O=C(CCc1ccc(CN2CCNC(C(=O)O)C2)cc1)NO` (stereo not drawn) [Example 114, 4-{4-[3-(Hydroxyamino)-3-oxopropyl]benzyl}piperazine-2-carboxylic acid] was > 1000 nM. `O=C(/C=C/c1ccc(CN2CCC(N[C@H](C(=O)O)C3CCCCC3)CC2)cc1)NO` [Example 106]: the IC50 in experiment [1] lay in the range of 101 to 1000 nM. Still for that read-out and setting: the value for `CC(C)C[C@H](NCc1ccc(/C=C/C(=O)NO)nc1)C(=O)O` [Example 102] was < 100 nM.
